Experiments:
[1] = Fluorescence emission spectra of prodrug vs. free photosensitizer (TBO); format: physicochemical; conditions: ethanol, 635 nm excitation
[2] = biological target: β-lactamase from Enterobacter cloacae (Enterobacter cloacae, UniProt P05364); test: Enzyme-mediated cleavage of the prodrug (fluorescence emission, photosensitizer release); format: biochemical
Procedure: Enzyme-mediated cleavage of the prodrug The prodrug obtained was further studied for release of photosensitizer in presence of β-lactamase from Enterobacter cloacae. For the fluorescence emission study of the prodrug, the solvent employed was water, and the excitation wavelength 635 nm in the presence of beta-lactamase enzyme (from Enterobacter cloacae). Time-dependent fluorescence emission was also measured for photosensitizer release from the prodrug in the presence of enzyme. […] Thus, the prodrug was synthesized and characterized.

Sequence of β-lactamase from Enterobacter cloacae (P05364 21-381): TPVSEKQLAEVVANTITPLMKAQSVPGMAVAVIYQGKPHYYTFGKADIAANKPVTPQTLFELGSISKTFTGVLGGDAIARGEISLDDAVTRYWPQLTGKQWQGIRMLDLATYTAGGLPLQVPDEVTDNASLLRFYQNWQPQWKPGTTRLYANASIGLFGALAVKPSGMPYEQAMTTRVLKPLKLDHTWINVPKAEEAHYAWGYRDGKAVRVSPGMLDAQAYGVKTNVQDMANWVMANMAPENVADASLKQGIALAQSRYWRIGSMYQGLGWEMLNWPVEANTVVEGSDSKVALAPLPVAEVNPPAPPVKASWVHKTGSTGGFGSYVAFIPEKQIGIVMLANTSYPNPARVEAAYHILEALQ

Cephalosporanic Acid-Toluidine BlueO Prodrug
reduction in fluorescence emission maxima (quenching of the photosensitizer upon conjugation with the cephalosporin moiety) [1]: ~8 fold | enzyme specificity of photosensitizer release ([2]; beta-lactamase enzyme (from Enterobacter cloacae)): lactamase-specific activity | increase in excited stated properties (fluorescence emission) on incubation with enzyme ([2]; water, 635 nm excitation, within minutes of incubation of prodrug with enzyme): ~5 fold
